The assay addresses T1, chimeric human RORγ-Gal4 receptor (Homo sapiens, UniProt P51449).
T1 sequence (P51449 269-508 limits assumed): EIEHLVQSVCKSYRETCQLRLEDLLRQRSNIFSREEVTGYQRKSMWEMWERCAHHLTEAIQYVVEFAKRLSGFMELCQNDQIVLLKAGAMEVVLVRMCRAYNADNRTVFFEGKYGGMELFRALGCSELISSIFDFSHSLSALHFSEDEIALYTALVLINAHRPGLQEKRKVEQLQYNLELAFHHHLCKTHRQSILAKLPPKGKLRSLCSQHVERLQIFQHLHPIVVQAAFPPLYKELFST
Briefly: transient transactivation assay (RORγ-Gal4 luciferase reporter). Format: cell-based. To be noted: read-out: IC50. A general note: In a reporter assay the amount or activity of a reporter protein is the signal.

[1] abbreviates: Cos-7 cells transfected with RORγ-Gal4 and 5Gal4 pGL3 TK Luc reporter, overnight incubation, T0901317 at 10^-5 M as reference.

Read-outs that look alike come from different tables or passages of the source.

Consider `COCCC1CCN(C(=O)c2ccc(Cl)c(Cc3cc4c(C)cc(C(F)(F)F)nc4n3C)c2Cl)CC1` [Example FT, (2,4-dichloro-3-((1,4-dimethyl-6-(trifluoromethyl)-1H-pyrrolo[2,3-b]pyridin-2-yl)methyl)phenyl)(4-(2-methoxyethyl)piperidin-1-yl)methanone], for which, under setting [1], the IC50 was under 100 nM. Take `Cc1cc(C(F)(F)F)nc2c1cc(C(=O)c1c(Cl)ccc(C(=O)N3CCC(C#N)CC3)c1Cl)n2C` [Example FV, 1-(2,4-dichloro-3-(1,4-dimethyl-6-(trifluoromethyl)-1H-pyrrolo[2,3-b]pyridine-2-carbonyl)benzoyl)piperidine-4-carbonitrile]: under setting [1], the IC50 was under 100 nM. Still for that read-out and setting: with `Cc1cc(C(F)(F)F)nc2c1cc(C(=O)c1c(Cl)ccc(C(=O)N3CC[C@@H](C(=O)O)[C@@H](C)C3)c1Cl)n2C` [Example FX, (3R,4R)-1-(2,4-dichloro-3-(1,4-dimethyl-6-(trifluoromethyl)-1H-pyrrolo[2,3-b]pyridine-2-carbonyl)benzoyl)-3-methylpiperidine-4-carboxylic acid] the figure was 100 to 500 nM; with `Cc1cc(C(F)(F)F)nc2c1cc(C(=O)c1c(Cl)ccc(C(=O)N3CCC(O)CC3)c1Cl)n2C` [Example FZ, (2,4-dichloro-3-(1,4-dimethyl-6-(trifluoromethyl)-1H-pyrrolo[2,3-b]pyridine-2-carbonyl)phenyl)(4-hydroxypiperidin-1-yl)methanone], under 100 nM. For the compound `Cc1ccc(C(=O)N2CCOCC2)c(C)c1C(=O)c1cc2c(C)cc(C(F)(F)F)cc2n1C` [Example G1, (2,6-dimethyl-3-(morpholine-4-carbonyl)phenyl)(1,4-dimethyl-6-(trifluoromethyl)-1H-indol-2-yl)methanone], the IC50 under setting [1] is 100 to 500 nM. For `Cc1cc(C(F)(F)F)nc2c1cc(C(=O)c1c(Cl)ccc(C(=O)N3CC[C@@H](CC(=O)O)[C@@H](C)C3)c1Cl)n2C.Cc1cc(C(F)(F)F)nc2c1cc(C(=O)c1c(Cl)ccc(C(=O)N3CC[C@@H](CC(=O)O)[C@H](C)C3)c1Cl)n2C.Cc1cc(C(F)(F)F)nc2c1cc(C(=O)c1c(Cl)ccc(C(=O)N3CC[C@H](CC(=O)O)[C@@H](C)C3)c1Cl)n2C.Cc1cc(C(F)(F)F)nc2c1cc(C(=O)c1c(Cl)ccc(C(=O)N3CC[C@H](CC(=O)O)[C@H](C)C3)c1Cl)n2C` [Example GA], the concentration for half-maximal inhibition (IC50) is under 100 nM. `Cc1cc(C(F)(F)F)nc2c1cc(C(=O)c1c(Cl)ccc(C(=O)N3CCC(S(C)(=O)=O)CC3)c1Cl)n2C` [Example GB, (2,4-dichloro-3-(1,4-dimethyl-6-(trifluoromethyl)-1H-pyrrolo[2,3-b]pyridine-2-carbonyl)phenyl)(4-(methylsulfonyl)piperidin-1-yl)methanone]: under setting [1], the IC50 was under 100 nM. As to `Cc1cc(C(F)(F)F)nc2c1cc(Cc1c(Cl)ncc(C(=O)N3CC[C@@H](CC(=O)O)[C@@H](C)C3)c1Cl)n2C` [Example GC, 2-((3R,4S)-1-(4,6-dichloro-5-((1,4-dimethyl-6-(trifluoromethyl)-1H-pyrrolo[2,3-b]pyridin-2-yl)methyl)nicotinoyl)-3-methylpiperidin-4-yl)acetic acid], under setting [1], the IC50 is under 100 nM.

Consider `Cc1cc(C(F)(F)F)nc2c1cc(Cc1c(Cl)ncc(C(=O)N3CCN(S(C)(=O)=O)CC3)c1Cl)n2C` [Example GE, (4,6-dichloro-5-((1,4-dimethyl-6-(trifluoromethyl)-1H-pyrrolo[2,3-b]pyridin-2-yl)methyl)pyridin-3-yl)(4-(methylsulfonyl)piperazin-1-yl)methanone], for which, under setting [1], the IC50 is 100 to 500 nM.

In the case of `Cc1cc(C(F)(F)F)nc2c1cc(Cc1c(Cl)ncc(C(=O)N3CCOCC3)c1Cl)n2C` [Example GF, (4,6-dichloro-5-((1,4-dimethyl-6-(trifluoromethyl)-1H-pyrrolo[2,3-b]pyridin-2-yl)methyl)pyridin-3-yl)(morpholino)methanone], the IC50 under setting [1] is under 100 nM.

What is called IC50 is the point on the concentration scale where inhibition reaches its midpoint.

These data come from patent US10106501B2, “Nuclear receptor modulators” (AbbVie Inc., priority 2015, dated 2018).
